From ChEMBL document CHEMBL1134969, “Synthesis and evaluation of water-soluble paclitaxel prodrugs” (Bioorg Med Chem Lett, 2002)

What was measured:
L1210 [1] = test: Cytotoxicity expressed as concentration required to inhibit cell growth by 50% on continuous exposure time of 72 hr in L1210 cell line by MTT assay.; assay type: functional, cell-based; settings: Mus musculus, L1210, 72 h
L1210 [2] = test: Cytotoxicity expressed as concentration required to inhibit cell growth by 50% on continuous exposure time of 96h in L1210 cell line by MTT assay.; assay type: functional, cell-based; settings: Mus musculus, L1210, 96 h
Mus musculus [3] = test: Percentage change in the body weight on day 20 after intravenous administration (8 mg/Kg) against human breast cancer xenograph Bcap-37 (grown sc in athymic mice); assay type: functional
Mus musculus [4] = test: Percentage change in the body weight on day 20 after intravenous administration (10 mg/kg) against B16 melanoma (implanted subcutaneously in mice).; assay type: functional
Mus musculus [5] = test: Tumor inhibition expressed as (average tumor weight of treated group/average tumor weight of control group)*100 at a dose of (8 mg/kg); assay type: functional
Mus musculus [6] = test: Tumor inhibition expressed as (average tumor weight of treated group/average tumor weight of control group)*100 at a dose of 10 mg/kg; assay type: functional
PG-49 cell line [7] = test: Cytotoxicity expressed as concentration required to inhibit cell growth by 50% on continuous exposure time of 72 hr in PG-49 cell line by MTT assay.; assay type: functional, cell-based; settings: Homo sapiens, PG-49, 72 h
PG-49 cell line [8] = test: Cytotoxicity expressed as concentration required to inhibit cell growth by 50% on continuous exposure time of 96h in PG-49 cell line by MTT assay.; assay type: functional, cell-based; settings: Homo sapiens, PG-49, 96 h
[9] = Toxicity expressed in terms of number of toxic deaths after administration (10 mg/Kg) in mice; out of 10 tested; settings: mouse, in vivo
[10] = Toxicity expressed in terms of number of toxic deaths after administration (8 mg/Kg) in athymic mice; out of 6 tested; settings: mouse, in vivo

Q: Which IC50 (L1210 [1]) does the source give for CC(=O)O[C@H]1C(=O)[C@@]2(C)[C@H]([C@H](OC(=O)c3ccccc3)[C@]3(O)C[C@H](OC(=O)[C@H](O)[C@@H](NC(=O)c4ccccc4)c4ccccc4)C(C)=C1C3(C)C)[C@]1(OC(C)=O)CO[C@@H]1C[C@@H]2O [PACLITAXEL] here?
A: 580 pM

Q: And the IC50 (L1210 [2])?
A: 90 pM

Q: What about the Body weight change (Mus musculus [3]) of the same compound?
A: 16.9%

Q: And the Body weight change (Mus musculus [4])?
A: 7.8%

Q: And the Tumor inhibition (Mus musculus [5])?
A: 78.02%

Q: And the Tumor inhibition (Mus musculus [6])?
A: 71.4%

Q: What about the IC50 (PG-49 cell line [7]) of the same compound?
A: 2140 pM

Q: And the IC50 (PG-49 cell line [8])?
A: 310 pM

Q: And the Toxicity [9]?
A: 2

Q: And the Toxicity [10]?
A: 0
